# From patent US9770500B2 (priority 2011, dated 2017)
# Tests used:
# [1] = test system: Caco-2 cells; settings: MTT, TcdB 3.7 nM for 10 min
# [2] = molecular target: T1, TcdB (Clostridioides difficile, UniProt P18177); assay type: biochemical, Clostridium difficile
# [3] = molecular target: deoxygenated hemoglobin (Homo sapiens, UniProt P68871); assay type: binding
# [4] = molecular target: T2, TcdA (Clostridioides difficile, UniProt P16154); assay type: in vivo, Cd-1 mice
# Method: TcdA-Exposure of Mouse Ileal Loops. Cd-1 mice (10 week old males; Charles River Labs) were fasted overnight. Ileal loops were ligated in anesthetized animals via laparotomy and injected with 0.15 ml of purified TcdA, TcdA-SNO or TcdA-NEM (10 μg) or buffer as described (Savidge et al., Gastroenterology 125:413-20 (2003); Oiu et al., Gastroenterology 111: 409-18 (1996)). […] Four hrs after TcdA administration, mice were euthanized and fluid secretion was determined as the loop weight ([…])-to-length (cm) ratio. Full thickness loops were frozen in liquid nitrogen or fixed in 10% formalin in PBS (pH 7.2) for 24 hours and embedded in paraffin using routine procedures. Histological severity of enteritis was evaluated by assessing (1) epithelial cell necrosis, (2) hemorrhagic congestion and edema of the mucosa, and (3) neutrophil margination and tissue infiltration (Savidge et al., Gastroenterology 125:413-20 (2003); Oiu et al., Gastroenterology 111: 409-18 (1996)).
# Myeloperoxidase Assay. Neutrophil myeloperoxidase (MPO) activity is an indicator of tissue inflammation. Intestinal segments (100-250 mg) were homogenized in 1 ml HTAB buffer and centrifuged at 20,000×g for 10 min at 4° C. Pellets were resuspended in 1 ml HTAB buffer containing 1% hexadecyltrimethlammonium to negate pseudoperoxidase activity. MPO activity was measured in supernatants following 3 cycles of sonication, freezing and thawing. After centrifugation at 40,000×g for 15 min at 4° C., supernatants (10 μl) were mixed with 90 μl of potassium phosphate buffer containing 0.167 mg/ml O-dianiside dihydrochloride and 0.0005% hydrogen peroxide. Activity was measured every 2 minutes for 20 minutes at 450 nm.
# Quantitative Cytokine mRNA Measurements. Total RNA was extracted from cells or frozen tissues, treated with 1 U DNAse I and reversed transcribed (Gene Amp RNA-PCR Kit). Real-time rtPCR reactions were run with SYBR Green PCR Master-Mix for 40 cycles on a Chromo4 detector (Bio-Rad Ltd) (94° C. for 2 min; 94° C. for 1 min; 60° C. for 1 min; 72QC for lmin; repeat step 2-to-4 for 40 cycles; 72° C. for 10 min). Primer sets were for human IL-8: (Forward 5′-[…]-3′ SEQ ID NO:2; Reverse 5′-[…]-3′ SEQ ID NO:3); murine TNFα (Forward 5′-[…]-3′ SEQ ID NO:4, Reverse 5′-[…] […]-3′ SEQ ID NO:5); murine […] (Forward 5′-TTGAC[…]-3′ SEQ ID NO:6, Reverse 5′-[…]-3′ SEQ ID NO:7). Samples were normalized against commercial GAPDH or 18S rRNA primers and probes (Applied Biosystems) and relative expression levels were calculated as previously described (Savidge et al., Gastroenterology 132:1344-58 (2007)).
# [5] = test system: C. difficile VPI 10463; assay type: in vivo, C57BL/6 mice
# Source text: Murine C. Difficile Infection Model. A conventional mouse model of antibiotic-induced C. difficile infection that closely resembles the spectrum of disease manifest in humans was used as described (Chen et al., Gastroenterology 135:1984-92 (2008)). Disease severity varies from fulminant with typical histopathologic features of C. difficile infection, to minimal diarrhea depending on challenge dose. 12 week-old C57BL/6 mice were pre-treated for three days with a mixture of antibiotics shown to disrupt the intestinal microflora (Chen et al., Gastroenterology 135:1984-92 (2008)). After two days, mice were injected with clindamycin and were challenged intragastrically with 10^6 C. difficile VPI 10463 vegetative cells the following day. […] Oral administration of vancomycin (50 mg/kg/day) was used as a positive control.
# [6] = molecular target: C. difficile TcdA holotoxin (Clostridioides difficile, UniProt P16154); assay type: binding, Clostridium difficile
# [7] = molecular target: toxin glucosyltransferase activity (Clostridioides difficile, UniProt P16154); assay type: biochemical, Clostridium difficile
# Method: Cell Free Rac1 Glucosvlation Assay. Glucosyltransferase activity of TcdA and TcdA-SNO was measured by their ability to glucosylate Rho GTPase Rac1 in a cell-free assay. Caco-2 cell pellets were resuspended in glucosylation buffer (50 mM HEPES, pH 7.5, 100 mM KCl, 1 mM MnCl2 and 2 mM MgCl2) and lysed with a syringe (25G, 40 passes through the needle). After centrifugation (167,000×g, 3 min), the supernatant was used as a post-nuclear cell lysate. To perform the glucosylation assay, the cell lysates were incubated with TcdA or TcdA-SNO (final concentration of the toxins was 5 μg/ml) at 37° C. for 30 min. The reaction was terminated by heating at 100° C. for 5 min in SDS-sample buffer. To measure Rac1 glucosylation levels, lysates were separated on a 4-20% gradient SDS-PAGE gel and transferred onto a nitrocellulose membrane. An antibody that specifically recognizes the non-glucosylated form of Rac1 (clone 102, BD Bioscience) was used for detection.
# [8] = molecular target: T1, TcdB
# [9] = test system: C. difficile toxin
# [10] = molecular target: T2, TcdA; experiment: cell-based
# [11] = in vivo; cited from earlier work
# T2 sequence (P16154 whole entry, looked up): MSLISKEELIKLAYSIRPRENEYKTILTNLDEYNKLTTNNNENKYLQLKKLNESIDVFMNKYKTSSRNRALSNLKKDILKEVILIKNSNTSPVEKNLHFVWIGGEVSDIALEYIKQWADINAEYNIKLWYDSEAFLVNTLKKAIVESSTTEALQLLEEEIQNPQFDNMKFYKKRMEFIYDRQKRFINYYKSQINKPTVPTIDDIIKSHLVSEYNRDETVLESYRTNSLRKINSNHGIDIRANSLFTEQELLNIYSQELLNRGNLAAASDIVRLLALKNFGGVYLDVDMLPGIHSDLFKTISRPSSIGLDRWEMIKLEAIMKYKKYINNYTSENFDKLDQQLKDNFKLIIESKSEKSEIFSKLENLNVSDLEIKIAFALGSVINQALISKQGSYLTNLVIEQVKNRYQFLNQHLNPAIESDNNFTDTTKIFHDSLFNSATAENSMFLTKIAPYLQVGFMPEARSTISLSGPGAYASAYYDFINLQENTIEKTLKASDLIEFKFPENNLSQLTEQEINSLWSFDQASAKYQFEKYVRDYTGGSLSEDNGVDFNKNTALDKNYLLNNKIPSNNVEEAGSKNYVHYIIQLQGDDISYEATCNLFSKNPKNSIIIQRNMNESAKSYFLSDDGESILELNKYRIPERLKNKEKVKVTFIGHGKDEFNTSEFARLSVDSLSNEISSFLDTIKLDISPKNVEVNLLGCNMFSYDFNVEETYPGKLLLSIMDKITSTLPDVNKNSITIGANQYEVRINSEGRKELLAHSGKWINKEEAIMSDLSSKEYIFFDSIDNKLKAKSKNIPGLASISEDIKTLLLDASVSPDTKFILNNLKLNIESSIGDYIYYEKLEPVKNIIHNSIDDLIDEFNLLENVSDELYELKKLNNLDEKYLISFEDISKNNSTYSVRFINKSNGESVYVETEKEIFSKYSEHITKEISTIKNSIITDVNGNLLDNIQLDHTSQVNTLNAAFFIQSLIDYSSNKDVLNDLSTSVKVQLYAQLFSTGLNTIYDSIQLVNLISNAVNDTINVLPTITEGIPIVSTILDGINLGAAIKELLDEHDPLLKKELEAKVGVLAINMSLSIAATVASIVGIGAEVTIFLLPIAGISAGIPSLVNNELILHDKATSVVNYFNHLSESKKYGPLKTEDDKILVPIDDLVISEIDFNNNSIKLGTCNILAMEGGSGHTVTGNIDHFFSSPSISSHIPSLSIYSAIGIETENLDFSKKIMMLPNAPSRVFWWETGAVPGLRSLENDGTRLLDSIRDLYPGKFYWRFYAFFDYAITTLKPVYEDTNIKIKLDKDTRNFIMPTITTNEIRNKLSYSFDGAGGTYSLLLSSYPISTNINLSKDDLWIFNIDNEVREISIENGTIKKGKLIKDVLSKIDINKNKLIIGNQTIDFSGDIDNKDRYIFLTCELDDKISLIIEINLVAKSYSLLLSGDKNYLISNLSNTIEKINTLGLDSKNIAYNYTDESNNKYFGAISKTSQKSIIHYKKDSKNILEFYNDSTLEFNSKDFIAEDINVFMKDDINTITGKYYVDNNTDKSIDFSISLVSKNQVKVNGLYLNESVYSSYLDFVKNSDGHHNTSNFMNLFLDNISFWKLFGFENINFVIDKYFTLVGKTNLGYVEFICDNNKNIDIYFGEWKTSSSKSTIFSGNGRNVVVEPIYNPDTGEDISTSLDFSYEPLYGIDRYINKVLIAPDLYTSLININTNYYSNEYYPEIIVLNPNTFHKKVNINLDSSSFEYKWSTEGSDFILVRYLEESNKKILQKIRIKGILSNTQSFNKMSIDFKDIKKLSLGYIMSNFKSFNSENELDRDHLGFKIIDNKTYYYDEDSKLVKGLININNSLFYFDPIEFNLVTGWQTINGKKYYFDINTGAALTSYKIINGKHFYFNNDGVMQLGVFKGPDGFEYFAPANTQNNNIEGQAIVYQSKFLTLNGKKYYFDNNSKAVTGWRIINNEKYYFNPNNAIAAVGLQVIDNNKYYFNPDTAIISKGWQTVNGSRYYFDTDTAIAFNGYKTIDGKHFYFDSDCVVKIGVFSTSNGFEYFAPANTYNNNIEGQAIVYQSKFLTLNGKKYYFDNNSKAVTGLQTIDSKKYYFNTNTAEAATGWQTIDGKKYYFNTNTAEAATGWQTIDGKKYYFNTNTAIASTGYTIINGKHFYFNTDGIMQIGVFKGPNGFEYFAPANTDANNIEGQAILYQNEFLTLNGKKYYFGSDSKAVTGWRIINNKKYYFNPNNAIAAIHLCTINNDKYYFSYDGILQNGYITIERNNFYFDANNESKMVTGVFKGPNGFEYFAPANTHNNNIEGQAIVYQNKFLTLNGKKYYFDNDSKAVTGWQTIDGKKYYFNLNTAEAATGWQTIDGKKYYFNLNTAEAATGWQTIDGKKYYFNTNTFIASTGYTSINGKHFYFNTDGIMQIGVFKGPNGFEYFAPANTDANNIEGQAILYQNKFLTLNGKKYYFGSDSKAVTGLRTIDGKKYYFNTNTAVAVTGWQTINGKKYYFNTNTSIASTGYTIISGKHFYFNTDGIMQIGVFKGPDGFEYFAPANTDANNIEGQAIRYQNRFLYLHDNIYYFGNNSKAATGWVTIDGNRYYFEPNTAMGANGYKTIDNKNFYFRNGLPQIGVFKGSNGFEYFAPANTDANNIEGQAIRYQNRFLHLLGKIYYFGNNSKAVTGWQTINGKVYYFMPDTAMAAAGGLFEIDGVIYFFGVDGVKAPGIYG
# T1 sequence (P18177 2-2366 limits assumed): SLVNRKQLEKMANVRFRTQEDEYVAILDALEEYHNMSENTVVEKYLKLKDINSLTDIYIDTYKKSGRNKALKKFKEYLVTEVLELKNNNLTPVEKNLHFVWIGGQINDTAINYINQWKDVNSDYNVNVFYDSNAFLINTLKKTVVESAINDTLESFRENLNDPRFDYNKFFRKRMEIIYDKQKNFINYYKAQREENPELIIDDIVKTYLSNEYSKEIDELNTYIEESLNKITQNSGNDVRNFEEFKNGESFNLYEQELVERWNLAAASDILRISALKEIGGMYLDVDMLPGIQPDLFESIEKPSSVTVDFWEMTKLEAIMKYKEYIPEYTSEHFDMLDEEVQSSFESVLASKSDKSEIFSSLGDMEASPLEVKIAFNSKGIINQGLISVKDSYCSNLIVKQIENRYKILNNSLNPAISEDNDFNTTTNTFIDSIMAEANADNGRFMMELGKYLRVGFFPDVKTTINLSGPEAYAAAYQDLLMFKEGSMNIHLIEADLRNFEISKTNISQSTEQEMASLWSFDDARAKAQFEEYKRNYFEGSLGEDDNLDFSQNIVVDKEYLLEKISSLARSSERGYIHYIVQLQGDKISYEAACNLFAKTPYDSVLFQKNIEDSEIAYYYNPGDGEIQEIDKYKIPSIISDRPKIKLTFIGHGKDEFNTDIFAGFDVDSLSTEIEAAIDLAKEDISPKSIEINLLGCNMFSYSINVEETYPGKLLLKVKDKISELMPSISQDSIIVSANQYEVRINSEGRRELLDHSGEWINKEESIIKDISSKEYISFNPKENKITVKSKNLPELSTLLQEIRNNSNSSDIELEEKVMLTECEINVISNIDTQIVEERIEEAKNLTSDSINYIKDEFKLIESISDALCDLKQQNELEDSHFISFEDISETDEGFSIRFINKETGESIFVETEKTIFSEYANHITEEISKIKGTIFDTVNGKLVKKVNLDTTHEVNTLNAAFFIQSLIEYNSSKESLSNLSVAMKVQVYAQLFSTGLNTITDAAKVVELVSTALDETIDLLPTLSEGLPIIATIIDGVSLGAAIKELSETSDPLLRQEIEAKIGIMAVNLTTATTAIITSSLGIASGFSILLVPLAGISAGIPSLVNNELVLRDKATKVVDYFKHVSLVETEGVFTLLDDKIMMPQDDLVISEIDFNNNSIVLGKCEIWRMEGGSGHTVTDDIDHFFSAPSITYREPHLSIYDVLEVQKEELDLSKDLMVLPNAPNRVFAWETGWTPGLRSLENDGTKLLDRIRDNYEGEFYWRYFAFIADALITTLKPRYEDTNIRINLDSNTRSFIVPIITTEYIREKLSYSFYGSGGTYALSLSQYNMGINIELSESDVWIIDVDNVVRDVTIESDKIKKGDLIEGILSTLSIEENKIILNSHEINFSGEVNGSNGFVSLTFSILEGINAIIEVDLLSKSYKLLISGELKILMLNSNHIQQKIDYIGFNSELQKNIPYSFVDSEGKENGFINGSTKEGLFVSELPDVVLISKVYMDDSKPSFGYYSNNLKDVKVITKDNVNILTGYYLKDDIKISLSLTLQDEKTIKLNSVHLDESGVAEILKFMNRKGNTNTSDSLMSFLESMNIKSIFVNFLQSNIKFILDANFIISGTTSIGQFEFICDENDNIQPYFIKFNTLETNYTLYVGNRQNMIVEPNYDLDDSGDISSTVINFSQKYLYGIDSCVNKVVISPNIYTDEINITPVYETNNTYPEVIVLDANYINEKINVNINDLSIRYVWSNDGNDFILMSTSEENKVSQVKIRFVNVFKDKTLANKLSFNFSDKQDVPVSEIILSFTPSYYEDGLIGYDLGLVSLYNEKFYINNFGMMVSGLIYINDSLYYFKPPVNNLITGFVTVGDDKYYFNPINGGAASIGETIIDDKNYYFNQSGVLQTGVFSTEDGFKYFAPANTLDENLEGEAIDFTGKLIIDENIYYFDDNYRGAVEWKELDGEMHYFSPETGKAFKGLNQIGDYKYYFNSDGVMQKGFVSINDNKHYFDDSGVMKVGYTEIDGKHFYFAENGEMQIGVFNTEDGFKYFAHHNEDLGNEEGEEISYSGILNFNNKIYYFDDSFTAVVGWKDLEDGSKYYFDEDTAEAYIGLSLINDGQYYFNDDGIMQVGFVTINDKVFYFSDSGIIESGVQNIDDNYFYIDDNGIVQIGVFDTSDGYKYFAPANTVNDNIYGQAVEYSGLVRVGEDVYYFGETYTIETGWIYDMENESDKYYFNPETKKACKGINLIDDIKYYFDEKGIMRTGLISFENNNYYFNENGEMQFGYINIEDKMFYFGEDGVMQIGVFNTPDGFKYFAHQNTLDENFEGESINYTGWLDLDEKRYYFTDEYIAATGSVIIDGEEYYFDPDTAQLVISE
molecule,measurement,setting,value
"COC(=O)[C@@H](N)CCCNC(=N)N[N+](=O)[O-] [L-NAME, N^G-nitro-L-arginine methyl ester]",effect on cytoprotection of eNOS expressing Caco-2 cells against TcdB,[1],reversed
"N[C@@H](CCC(=O)N[C@@H](CS)C(=O)NCC(=O)O)C(=O)O [GSH, glutathione]",effect on InsP6 induced TcdB autocleavage,[2],potentiated
same,toxin autocleavage with agent alone,[2],No significant toxin autocleavage
"D-myo-5-PP-(1,2,3,4,6)InsP5 [m-InsP7]",TcdB autocleavage activity,[2],not significantly different
"(rac1)-1(3)-PP-(2,3,4,5,6)InsP5 [r-InsP7]",TcdB autocleavage activity,[2],not significantly different
"O[C@H](CS)[C@H](O)CS (racemic) [DTT, dithiothreitol]",toxin autocleavage with agent alone,[2],No significant toxin autocleavage
"O=P(O)(O)OC1C(OP(=O)(O)O)C(OP(=O)(O)O)C(OP(=O)(O)O)C(OP(=O)(O)O)C1OP(=O)(O)O (stereo not shown) [InsP6, inositol hexakisphosphate]",binding affinity,[3],> 1.6 nM/mg protein
same,effect of added InsP6 on GSNO inhibition of TNF-α and IL-1γ transcripts,[4]; InsP6 1 mM with GSNO,potentiated
same,effect of added InsP6 on GSNO protection against fluid secretion,[4]; InsP6 1 mM with GSNO 10 mg/kg,enhanced
same,effect of added InsP6 on survival benefit of GSNO,[5]; oral InsP6 0.25 mg/kg/day with GSNO 10 mg/kg/day,potentiated
"CCOC(=O)CNC(=O)[C@H](CS)NC(=O)CC[C@H](N)C(=O)O [GSH-EE, GSH-ethyl ester]",effect on cytoprotection of eNOS expressing Caco-2 cells against TcdB,[1],reversed
"N[C@@H](CCC(=O)N[C@@H](CSN=O)C(=O)NCC(=O)O)C(=O)O [GSNO, S-nitrosoglutathione]",effect on InsP6 binding to the cysteine protease domain,[6],significantly inhibited
same,effect on InsP6 induced TcdB autocleavage,[2],inhibited
same,glucosyltransferase activity in cell lysates,[7],did not inhibit toxin binding to Caco-2 cells or alter glucosyltransferase activity
same,TcdA induced fluid secretion in murine ileal loops,"[4]; GSNO 10 mg/kg in 0.1 ml, TcdA 10 μg, 4 hrs",inhibits
same,TcdA induced TNF-α and IL-1γ gene transcripts,"[4]; TcdA 10 μg, 4 hrs",significantly attenuated
same,"toxin-induced disease activity (histological damage, inflammation, intestinal secretion)",[4]; co-injected with TcdA into ileal loops for 4 hrs,markedly reduced
same,survival (Kaplan-Meier),[5]; oral gavage GSNO 10 mg/kg/day,survival benefit
same,IC50 of GSNO with inositolphosphate cofactor,[8],low micromolar range
same,toxin binding to Caco-2 cells,[9],did not inhibit
same,IC50,[10],57.9 µM
same,tolerability,[11],well tolerated
